According to patent US20170000129A1, “METHOD FOR TREATING MINERAL SLURRIES WITH A BIOCIDE” (priority 2015, published 2017):

Assays:
[1] = system: bacterial growth in kaolin slurry; assay: Kaolin slurry preservation test: biocide-dosed 65% solids slurry plated on standard method agar, samples as treated; assay type: cell-based, bacteria
Protocol: (§1) In the comparative testing, dry kaolin was mixed with water to achieve a 65% solid slurry material. This material contained no biocide. The slurry was then split into 200 gram aliquots and dosed with different biocides at different concentration as shown in Tables 1-3. All samples were kept at 50° C. until the end of the testing, which was up to 28 days.
A number of different and known biocides were used in the study and they include glutaraldehyde (glute), 1,2 benzithiazolin-3-one (BIT), tetrahydro-3-5-methyl-2H-1,3,5-thiadizine-2-thione (thione), isothiazoline (ISO), bronopol (BNPD) or orthophenyl phenate (OPP). For shorthand purposes, the study refers to the tradename of the biocide, which is found in the above listing of the biocides. Metam sodium is designated as SMDC and MDTCMA is used without change
(§2) The protocol for the testing of each sample is as follows: • 1) dosed with a recorded level of biocide; • 2) mixed for 24 hours contact time and plated using standard method agar for bacterial growth; • 3) remixed daily for 1 hour and retested for bacterial growth at Day 3; • 4) remixed daily for 1 hour and retested for bacterial growth at Day 7; • 5) remixed daily for 1 hour and retested for bacterial growth at Day 14; • 6) on day 20, samples were split into two containers: one container was inoculated (or challenged) with ˜10^5 cfu/ml bacteria, the other was left “as treated”, the challenge material was obtained from a contaminated kaolin product and is assumed to be representative of the types of bacteria that are seen in the kaolin industry, and the two sets of samples were prepared for Day 21 testing; • 7) both sets were remixed daily for 1 hour and retested for bacterial growth at Day 21; and • 8) both sets remixed daily for 1 hour and retested for bacterial growth at Day 28.
Different contact times were used to see how quickly the bacterial population was effected by the biocide.

[2] = system: bacteria from a contaminated kaolin product; assay: Kaolin slurry preservation test, challenge: on day 20 samples inoculated with ~10^5 cfu/ml bacteria from a contaminated kaolin product; assay type: cell-based
Protocol: as §1, §2

CN1CSC(=S)N(C)C1 [24% Thione, tetrahydro-3,5-dimethyl-2H-1,3,5-thiadiazine-2-thione, reference compound]
Log Red, contact time 1 day ([1]; 500 ppm, Table 2): 0 | Log Red, contact time 3 day ([1]; 500 ppm, Table 2): 3 | Log Red, contact time 7 day ([1]; 500 ppm, Table 2): 4 | Log Red, contact time 14 day ([1]; 500 ppm, Table 2): 4 | Log Red, contact time 21 day ([1]; 500 ppm, Table 2): 5 | Log Red, contact time 28 day ([1]; 500 ppm, Table 2): 5 | cfu/mL, contact time 1 day ([1]; 500 ppm, Table 2): 13,340,000 cfu/mL | cfu/mL, contact time 3 day ([1]; 500 ppm, Table 2): 11,000 cfu/mL | cfu/mL, contact time 7 day ([1]; 500 ppm, Table 2): 5,600 cfu/mL | cfu/mL, contact time 14 day ([1]; 500 ppm, Table 2): 2,100 cfu/mL | cfu/mL, contact time 21 day ([1]; 500 ppm, Table 2): 1,100 cfu/mL | cfu/mL, contact time 28 day ([1]; 500 ppm, Table 2): 800 cfu/mL | Log Red, contact time 1 day ([1]; 500 ppm, Table 3): 2 | Log Red, contact time 3 day ([1]; 500 ppm, Table 3): 2 | Log Red, contact time 7 day ([1]; 500 ppm, Table 3): 2 | Log Red, contact time 14 day ([1]; 500 ppm, Table 3): 3 | Log Red, contact time 21 day ([1]; 500 ppm, Table 3): 2 | Log Red, contact time 28 day ([1]; 500 ppm, Table 3): 2 | cfu/mL, contact time 1 day ([1]; 500 ppm, Table 3): 3,300 cfu/mL | cfu/mL, contact time 3 day ([1]; 500 ppm, Table 3): 100 cfu/mL | cfu/mL, contact time 7 day ([1]; 500 ppm, Table 3): 100 cfu/mL | cfu/mL, contact time 14 day ([1]; 500 ppm, Table 3): 100 cfu/mL | cfu/mL, contact time 21 day ([1]; 500 ppm, Table 3): 100 cfu/mL | cfu/mL, contact time 28 day ([1]; 500 ppm, Table 3): 100 cfu/mL | Log Red, contact time 1 day ([1]; 1000 ppm, Table 2): 1 | Log Red, contact time 3 day ([1]; 1000 ppm, Table 2): 4 | Log Red, contact time 7 day ([1]; 1000 ppm, Table 2): 4 | Log Red, contact time 14 day ([1]; 1000 ppm, Table 2): 5 | Log Red, contact time 21 day ([1]; 1000 ppm, Table 2): 5 | Log Red, contact time 28 day ([1]; 1000 ppm, Table 2): 5 | cfu/mL, contact time 1 day ([1]; 1000 ppm, Table 2): 6,670,000 cfu/mL | cfu/mL, contact time 3 day ([1]; 1000 ppm, Table 2): 6,800 cfu/mL | cfu/mL, contact time 7 day ([1]; 1000 ppm, Table 2): 2,600 cfu/mL | cfu/mL, contact time 14 day ([1]; 1000 ppm, Table 2): 1,200 cfu/mL | cfu/mL, contact time 21 day ([1]; 1000 ppm, Table 2): 300 cfu/mL | cfu/mL, contact time 28 day ([1]; 1000 ppm, Table 2): 200 cfu/mL | Log Red, contact time 1 day ([1]; 1000 ppm, Table 3): 3 | Log Red, contact time 3 day ([1]; 1000 ppm, Table 3): 2 | Log Red, contact time 7 day ([1]; 1000 ppm, Table 3): 2 | Log Red, contact time 14 day ([1]; 1000 ppm, Table 3): 3 | Log Red, contact time 21 day ([1]; 1000 ppm, Table 3): 2 | Log Red, contact time 28 day ([1]; 1000 ppm, Table 3): 2 | cfu/mL, contact time 1 day ([1]; 1000 ppm, Table 3): 100 cfu/mL | cfu/mL, contact time 3 day ([1]; 1000 ppm, Table 3): 100 cfu/mL | cfu/mL, contact time 7 day ([1]; 1000 ppm, Table 3): 100 cfu/mL | cfu/mL, contact time 14 day ([1]; 1000 ppm, Table 3): 100 cfu/mL | cfu/mL, contact time 21 day ([1]; 1000 ppm, Table 3): 100 cfu/mL | cfu/mL, contact time 28 day ([1]; 1000 ppm, Table 3): 100 cfu/mL | Log Red, 21 day Challenge ([2]; 500 ppm, Table 2): 3 | Log Red, 28 day Challenge ([2]; 500 ppm, Table 2): 4 | cfu/mL, 21 day Challenge ([2]; 500 ppm, Table 2): 39,000 cfu/mL | cfu/mL, 28 day Challenge ([2]; 500 ppm, Table 2): 3,400 cfu/mL | Log Red, 21 day Challenge ([2]; 500 ppm, Table 3): 5 | Log Red, 28 day Challenge ([2]; 500 ppm, Table 3): 5 | cfu/mL, 21 day Challenge ([2]; 500 ppm, Table 3): 100 cfu/mL | cfu/mL, 28 day Challenge ([2]; 500 ppm, Table 3): 100 cfu/mL | Log Red, 21 day Challenge ([2]; 1000 ppm, Table 2): 5 | Log Red, 28 day Challenge ([2]; 1000 ppm, Table 2): 4 | cfu/mL, 21 day Challenge ([2]; 1000 ppm, Table 2): 900 cfu/mL | cfu/mL, 28 day Challenge ([2]; 1000 ppm, Table 2): 1,500 cfu/mL | Log Red, 21 day Challenge ([2]; 1000 ppm, Table 3): 5 | Log Red, 28 day Challenge ([2]; 1000 ppm, Table 3): 5 | cfu/mL, 21 day Challenge ([2]; 1000 ppm, Table 3): 100 cfu/mL | cfu/mL, 28 day Challenge ([2]; 1000 ppm, Table 3): 100 cfu/mL | biocide effectiveness after inoculation, overall result of the studies [2]: most effective biocides

CNC(=S)[S-].[Na+] [42% SMDC, sodium N-methyldithiocarbamate]
Log Red, contact time 1 day ([1]; 500 ppm, Table 1): 0 | Log Red, contact time 3 day ([1]; 500 ppm, Table 1): 1 | Log Red, contact time 7 day ([1]; 500 ppm, Table 1): 3 | cfu/mL, contact time 1 day ([1]; 500 ppm, Table 1): 24,340,000 cfu/mL | cfu/mL, contact time 3 day ([1]; 500 ppm, Table 1): 2,600,000 cfu/mL | cfu/mL, contact time 7 day ([1]; 500 ppm, Table 1): 30,000 cfu/mL | performance against the BIT biocide when measuring log reduction ([1]; 500 ppm, Table 1): performed at least as well as the BIT biocide | Log Red, contact time 1 day ([1]; 500 ppm, Table 2): 0 | Log Red, contact time 3 day ([1]; 500 ppm, Table 2): 2 | Log Red, contact time 7 day ([1]; 500 ppm, Table 2): 4 | Log Red, contact time 14 day ([1]; 500 ppm, Table 2): 4 | Log Red, contact time 21 day ([1]; 500 ppm, Table 2): 5 | Log Red, contact time 28 day ([1]; 500 ppm, Table 2): 4 | cfu/mL, contact time 1 day ([1]; 500 ppm, Table 2): 19,630,000 cfu/mL | cfu/mL, contact time 3 day ([1]; 500 ppm, Table 2): 780,002 cfu/mL | cfu/mL, contact time 7 day ([1]; 500 ppm, Table 2): 4,000 cfu/mL | cfu/mL, contact time 14 day ([1]; 500 ppm, Table 2): 3,000 cfu/mL | cfu/mL, contact time 21 day ([1]; 500 ppm, Table 2): 1,800 cfu/mL | cfu/mL, contact time 28 day ([1]; 500 ppm, Table 2): 1,800 cfu/mL | Log Red, contact time 1 day ([1]; 1000 ppm, Table 1): 0 | Log Red, contact time 3 day ([1]; 1000 ppm, Table 1): 1 | Log Red, contact time 7 day ([1]; 1000 ppm, Table 1): 5 | cfu/mL, contact time 1 day ([1]; 1000 ppm, Table 1): 16,880,000 cfu/mL | cfu/mL, contact time 3 day ([1]; 1000 ppm, Table 1): 2,200,000 cfu/mL | cfu/mL, contact time 7 day ([1]; 1000 ppm, Table 1): 1,000 cfu/mL | performance against the BIT biocide when measuring log reduction ([1]; 1000 ppm, Table 1): far superior | Log Red, contact time 1 day ([1]; 1000 ppm, Table 2): 0 | Log Red, contact time 3 day ([1]; 1000 ppm, Table 2): 4 | Log Red, contact time 7 day ([1]; 1000 ppm, Table 2): 4 | Log Red, contact time 14 day ([1]; 1000 ppm, Table 2): 4 | Log Red, contact time 21 day ([1]; 1000 ppm, Table 2): 5 | Log Red, contact time 28 day ([1]; 1000 ppm, Table 2): 4 | cfu/mL, contact time 1 day ([1]; 1000 ppm, Table 2): 12,560,000 cfu/mL | cfu/mL, contact time 3 day ([1]; 1000 ppm, Table 2): 4,800 cfu/mL | cfu/mL, contact time 7 day ([1]; 1000 ppm, Table 2): 2,400 cfu/mL | cfu/mL, contact time 14 day ([1]; 1000 ppm, Table 2): 2,600 cfu/mL | cfu/mL, contact time 21 day ([1]; 1000 ppm, Table 2): 900 cfu/mL | cfu/mL, contact time 28 day ([1]; 1000 ppm, Table 2): 900 cfu/mL | Log Red, contact time 1 day ([1]; 1000 ppm, Table 3): 3 | Log Red, contact time 3 day ([1]; 1000 ppm, Table 3): 2 | Log Red, contact time 7 day ([1]; 1000 ppm, Table 3): 2 | Log Red, contact time 14 day ([1]; 1000 ppm, Table 3): 3 | Log Red, contact time 21 day ([1]; 1000 ppm, Table 3): 2 | Log Red, contact time 28 day ([1]; 1000 ppm, Table 3): 2 | cfu/mL, contact time 1 day ([1]; 1000 ppm, Table 3): 200 cfu/mL | cfu/mL, contact time 3 day ([1]; 1000 ppm, Table 3): 100 cfu/mL | cfu/mL, contact time 7 day ([1]; 1000 ppm, Table 3): 100 cfu/mL | cfu/mL, contact time 14 day ([1]; 1000 ppm, Table 3): 100 cfu/mL | cfu/mL, contact time 21 day ([1]; 1000 ppm, Table 3): 100 cfu/mL | cfu/mL, contact time 28 day ([1]; 1000 ppm, Table 3): 100 cfu/mL | Log Red, contact time 1 day ([1]; 1500 ppm, Table 3): 3 | Log Red, contact time 3 day ([1]; 1500 ppm, Table 3): 2 | Log Red, contact time 7 day ([1]; 1500 ppm, Table 3): 2 | Log Red, contact time 14 day ([1]; 1500 ppm, Table 3): 3 | Log Red, contact time 21 day ([1]; 1500 ppm, Table 3): 2 | Log Red, contact time 28 day ([1]; 1500 ppm, Table 3): 2 | cfu/mL, contact time 1 day ([1]; 1500 ppm, Table 3): 100 cfu/mL | cfu/mL, contact time 3 day ([1]; 1500 ppm, Table 3): 100 cfu/mL | cfu/mL, contact time 7 day ([1]; 1500 ppm, Table 3): 100 cfu/mL | cfu/mL, contact time 14 day ([1]; 1500 ppm, Table 3): 100 cfu/mL | cfu/mL, contact time 21 day ([1]; 1500 ppm, Table 3): 100 cfu/mL | cfu/mL, contact time 28 day ([1]; 1500 ppm, Table 3): 100 cfu/mL | biocide efficacy compared with known biocides ([1]; Table 2, up to 28 days): comparable biocide efficacy as compared to known biocides | biocide effectiveness compared with thione ([1]; Table 3, up to the 28 day testing, not challenge testing, 1000 and 1500 ppm): performed on a par with the thione | Log Red, 21 day Challenge ([2]; 500 ppm, Table 2): 3 | Log Red, 28 day Challenge ([2]; 500 ppm, Table 2): 3 | cfu/mL, 21 day Challenge ([2]; 500 ppm, Table 2): 105,000 cfu/mL | cfu/mL, 28 day Challenge ([2]; 500 ppm, Table 2): 16,000 cfu/mL | Log Red, 21 day Challenge ([2]; 1000 ppm, Table 2): 3 | Log Red, 28 day Challenge ([2]; 1000 ppm, Table 2): 3 | cfu/mL, 21 day Challenge ([2]; 1000 ppm, Table 2): 59,000 cfu/mL | cfu/mL, 28 day Challenge ([2]; 1000 ppm, Table 2): 16,000 cfu/mL | Log Red, 21 day Challenge ([2]; 1000 ppm, Table 3): 2 | Log Red, 28 day Challenge ([2]; 1000 ppm, Table 3): 1 | cfu/mL, 21 day Challenge ([2]; 1000 ppm, Table 3): 384,000 cfu/mL | cfu/mL, 28 day Challenge ([2]; 1000 ppm, Table 3): 3,000,000 cfu/mL | Log Red, 21 day Challenge ([2]; 1500 ppm, Table 3): 5 | Log Red, 28 day Challenge ([2]; 1500 ppm, Table 3): 5 | cfu/mL, 21 day Challenge ([2]; 1500 ppm, Table 3): 100 cfu/mL | cfu/mL, 28 day Challenge ([2]; 1500 ppm, Table 3): 100 cfu/mL | biocide effectiveness in challenge testing ([2]; Table 3, challenge testing): comparable to thione | biocide effectiveness after inoculation, overall result of the studies [2]: most effective biocides
